In patent US20120263764A1, “COMPOSITIONS AND METHODS FOR INHIBITING AND/OR MODULATING EFFECTOR T-CELLS INVOLVED IN INFLAMMATORY NEURODEGENERATIVE DISEASE” (Revalesio Corporation, priority 2011, published 2012):

Experiment: Body weight in MBP EAE rat model
Assay type: in vivo, Lewis rats
Details: Group 2F; at study termination
Source text: Body weight loss can be the first sign of disease initiation, while a sudden marked weight gain tends to accompany remission of EAE symptoms. Therefore, determination of individual body weights of animals was made shortly before EAE induction on study day 0 (study commencement) and thereafter on a daily basis throughout the entire 21-day observation period.
This working EXAMPLE discloses the weight change of rats subjected to the experiment described in Example 7. Body weight loss can be the first sign of disease initiation, while a sudden marked weight gain tends to accompany remission of EAE symptoms. Therefore, determination of individual body weights of animals was made shortly before EAE induction on study day 0 (study commencement) and on a daily basis throughout the 21-day observation period.

With `C[C@@H]1C[C@H]2[C@@H]3CCC4=CC(=O)C=C[C@]4(C)[C@@]3(F)[C@@H](O)C[C@]2(C)[C@@]1(O)C(=O)CO` [Dexamethasone] the “mean body weight lost” value was 2%.
